Results reported in US20220251081A1, “HETEROBICYCLIC INHIBITORS OF MAT2A AND METHODS OF USE FOR TREATING CANCER” (priority 2019, published 2022).

How the values were obtained:
HCT116 MTAP-/- = test: Inhibition of cellular proliferation, 4 days, Cell Titer Glo, HCT116 MTAP-/-; assay type: cell-based; details: Homo sapiens, HCT-116, 96 h, IC50 score, read-out: 4 Day Relative Growth Inhibition (MTAP −/−)
Procedure, shortened: (§1)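 Isogenic human colon carcinoma lines differing only in MTAP status, plated 24 h before dosing, then exposed for 4 days at 37 °C/5% CO2 to a 10-point 3-fold dilution series (0.2% DMSO final). Read-out is Cell Titer Glo ATP luminescence, blank-subtracted and normalised to in-plate DMSO control, plotted as % proliferation change versus log molar concentration.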

MAT2A homodimer = target: T1, MAT2A homodimer (Homo sapiens, UniProt P31153); test: Biochemical assay: inhibition of recombinant MAT2A homodimer (phosphate release, PiColorLock Gold); details: MAT2A IC50 score; read-out: Enzyme Inhibition
T1 construct: inferred from Ni sepharose purification and imidazole elution; made in house; host or cells: Sf9 insect cells, recombinant baculovirus (Bac to Bac, pFASTBAC1 vector)
T1 sequence (P31153 whole entry): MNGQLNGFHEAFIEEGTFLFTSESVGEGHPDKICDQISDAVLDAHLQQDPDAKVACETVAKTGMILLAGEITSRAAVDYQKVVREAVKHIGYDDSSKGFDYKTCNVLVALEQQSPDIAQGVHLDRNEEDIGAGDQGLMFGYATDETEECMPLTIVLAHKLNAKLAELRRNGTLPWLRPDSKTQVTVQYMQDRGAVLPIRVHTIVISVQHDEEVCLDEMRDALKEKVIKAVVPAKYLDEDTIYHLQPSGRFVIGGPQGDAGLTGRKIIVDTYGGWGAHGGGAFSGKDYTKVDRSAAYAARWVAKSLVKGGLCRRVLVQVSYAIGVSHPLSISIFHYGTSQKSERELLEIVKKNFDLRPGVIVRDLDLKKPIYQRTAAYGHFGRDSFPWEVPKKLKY
Procedure, shortened: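 Baculovirus/Sf9-expressed, Ni-purified MAT2A at 4 μg/mL in pH 8.0 Tris/KCl/MgCl2/EDTA/BSA buffer, preincubated with compound 60 min at 25 °C. Started with ATP and L-methionine substrate mix (500 μM and 40 μM, stock in mix), 60 min at 25 °C; released phosphate by PiColorLock Gold against a phosphate standard curve.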

[1] = test system: SAM in HCT116 human colon carcinoma cell line with deleted MTAP gene; test: Cellular assay of target engagement (SAM): SAM level by LC-MS/MS after 72 hrs; assay type: cell-based; details: HCT-116, IC50 score, read-out: Cell 72 h SAM Inhibition (MTAP −/−)
Procedure, shortened: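 MTAP-deleted HCT116 cells were seeded, then exposed 24 h later to a 10-point 3-fold compound dilution series for 72 h at 37 °C/5% CO2. They were lysed in cold 80% methanol/acetic acid containing d3-SAM internal standard. SAM was quantified by LC-MS/MS (MRM, m/z 399.2→250.1).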

HCT116 MTAP +/+ = test: Inhibition of cellular proliferation, 4 days, Cell Titer Glo, HCT116 MTAP+/+; assay type: cell-based; details: Homo sapiens, HCT-116, 96 h, IC50 score, read-out: 4 Day Relative Growth Inhibition (MTAP +/+)
Procedure, shortened: as §1

Row | SMILES | IC50 (HCT116 MTAP-/-) [nM] | IC50 (MAT2A homodimer) [nM] | IC50 [1] [nM] | IC50 (HCT116 MTAP +/+) [nM]
1 | [2H]C([2H])([2H])Oc1ccc(-n2c(=O)c(-c3ccc4nncn4c3)cc3ccc(OCC)nc32)cc1 [Example 221] | < 100 | < 100 | < 100 | ≥ 1000
2 | CCOc1ccc2nc(-c3ccc4nn(C)cc4c3)c(=O)n(-c3ccc(Cl)cc3)c2n1 [Example 222, 4-(4-chlorophenyl)-6-ethoxy-2-(2-methyl-2H-indazol-5-yl)pyrido[2,3-b]pyrazin-3(4H)-one] | < 100 | < 100 | < 100 | ≥ 1000
3 | CCOc1ccc2nc(-c3ccc(OC)cc3)c(=O)n(-c3ccc(OC(F)F)cc3)c2n1 [Example 223] | 100 to 1000 | < 100 | 100 to 1000 | ≥ 1000
4 | Cn1cc2cc(-c3nc4ccc(NCC(F)(F)F)nc4n(-c4ccc(Cl)cc4)c3=O)ccc2n1 [Example 226] | < 100 | < 100 | < 100 | ≥ 1000
5 | CCOc1cnc2cc(-c3ccc4nn(C)cc4c3)c(=O)n(-c3ccc(Cl)cc3)c2n1 [Example 229, 5-(4-chlorophenyl)-3-ethoxy-7-(2-methyl-2H-indazol-5-yl)pyrido[2,3-b]pyrazin-6(5H)-one] | < 100 | < 100 | < 100 | ≥ 1000
6 | COc1ccc(-c2cc3cnc(NCC(F)(F)F)nc3n(-c3ccc(Br)cc3)c2=O)cc1 [Example 232, 8-(4-bromophenyl)-6-(4-methoxyphenyl)-2-(2,2,2-trifluoroethylamino)pyrido[2,3-d]pyrimidin-7(8H)-one] | 100 to 1000 | < 100 | < 100 | ≥ 1000
7 | COc1ccc(-n2c(=O)c(-c3ccc(=O)[nH]c3)cc3cnc(NCC(F)(F)F)nc32)cc1 [Example 235, 8-(4-methoxyphenyl)-6-(6-oxo-1,6-dihydropyridin-3-yl)-2-(2,2,2-trifluoroethylamino)pyrido[2,3-d]pyrimidin-7(8H)-one] | 100 to 1000 | < 100 | 100 to 1000 | ≥ 1000
8 | COc1ccc(-c2cc3ncc(NCC(F)(F)F)nc3n(-c3ccc(OC(F)F)cc3)c2=O)cc1 [Example 237, 5-(4-(difluoromethoxy)phenyl)-7-(4-methoxyphenyl)-3-((2,2,2-trifluoroethyl)amino)pyrido[2,3-b]pyrazin-6(5H)-one] | < 100 | < 100 | < 100 | ≥ 1000
9 | [2H]C([2H])([2H])Oc1ccc(-n2c(=O)c(-c3ccc4nn(C)cc4c3)cc3ccc(OCCF)nc32)cc1 [Example 302] | < 100 | < 100 | < 100 | 100 to 1000
10 | CCNc1ccc2cc(-c3ccc4nn(C)cc4c3)c(=O)n(-c3ccc(C4CC4)nc3)c2n1 [Example 308] | < 100 | < 100 | < 100 | ≥ 1000
11 | CCNc1ccc2cc(-c3ccc4nn(C)cc4c3)c(=O)n(-c3ccc(Cl)cc3)c2n1 [Example 310] | < 100 | < 100 | < 100 | 100 to 1000
12 | COc1ccc(-n2c(=O)c(-c3ccc4nn(C)cc4c3)cc3ccc(OCC(F)(F)F)nc32)cc1 [Example 313] | < 100 | < 100 | < 100 | ≥ 1000
13 | CCOc1ccc2cc(-c3ccc4nn(C)cc4c3)c(=O)n(-c3ccc(Br)cc3)c2n1 [Example 317] | 100 to 1000 | < 100 | < 100 | 100 to 1000
14 | Cn1cc2cc(-c3cc4ccc(OCC(F)F)nc4n(-c4ccc(Br)cc4)c3=O)ccc2n1 [Example 318] | < 100 | < 100 | < 100 | 100 to 1000
15 | Cn1cc2cc(-c3cc4ccc(OCC(F)F)nc4n(-c4ccc(OC(F)F)cc4)c3=O)ccc2n1 [Example 321] | < 100 | < 100 | < 100 | ≥ 1000
16 | [2H]C([2H])([2H])Oc1ccc(-n2c(=O)c(-c3ccc4nn(C)cc4c3)nc3ccc(OCC)nc32)cc1 [Example 324] | < 100 | < 100 | < 100 | 100 to 1000

The remaining lines, values ahead:

Row | IC50 (HCT116 MTAP-/-) [nM] | IC50 (MAT2A homodimer) [nM] | IC50 [1] [nM] | IC50 (HCT116 MTAP +/+) [nM] | SMILES
17 | 100 to 1000 | < 100 | < 100 | ≥ 1000 | CCOc1ccc2cc(-c3ccc4nncn4c3)c(=O)n(-c3ccc(OC(F)(F)F)cc3)c2n1 [Example 219]
18 | < 100 | < 100 | < 100 | ≥ 1000 | [2H]C([2H])([2H])Oc1ccc(-n2c(=O)c(-c3ccc4nncn4c3)cc3ccc(OCC(F)F)nc32)cc1 [Example 220]
19 | < 100 | < 100 | < 100 | 100 to 1000 | CCOc1ccc2nc(-c3ccc4nn(C)cc4c3)c(=O)n(-c3ccc(OC(F)F)cc3)c2n1 [Example 224]
20 | < 100 | < 100 | < 100 | ≥ 1000 | Cn1cc2cc(-c3nc4ccc(NCC(F)(F)F)nc4n(-c4ccc(OC(F)F)cc4)c3=O)ccc2n1 [Example 225]
21 | < 100 | < 100 | < 100 | ≥ 1000 | COc1ccc(-c2nc3ccc(NCC(F)(F)F)nc3n(-c3ccc(OC(F)F)cc3)c2=O)cc1 [Example 227]
22 | < 100 | < 100 | < 100 | ≥ 1000 | Cn1cc2cc(-c3nc4ccc(OCC(F)F)nc4n(-c4ccc(OC(F)F)cc4)c3=O)ccc2n1 [Example 228]
23 | 100 to 1000 | < 100 | < 100 | 100 to 1000 | CCOc1cnc2cc(-c3ccc(OC)cc3)c(=O)n(-c3ccc(OC(F)F)cc3)c2n1 [Example 230]
24 | < 100 | < 100 | < 100 | 100 to 1000 | CCOc1cnc2cc(-c3ccc4nn(C)cc4c3)c(=O)n(-c3ccc(OC(F)F)cc3)c2n1 [Example 231]
25 | < 100 | < 100 | < 100 | ≥ 1000 | COc1ccc(-c2cc3cnc(NCC(F)(F)F)nc3n(-c3ccc(-c4ccn[nH]4)cc3)c2=O)cc1 [Example 233, 8-(4-(1H-pyrazol-5-yl)phenyl)-6-(4-methoxyphenyl)-2-(2,2,2-trifluoroethylamino)pyrido[2,3-d]pyrimidin-7(8H)-one]
26 | < 100 | < 100 | < 100 | ≥ 1000 | CCCc1ccc2cc(-c3ccc4nn(C)cc4c3)c(=O)n(-c3ccc(Cl)cc3)c2n1 [Example 236, 1-(4-chlorophenyl)-3-(2-methyl-2H-indazol-5-yl)-7-propyl-1,8-naphthyridin-2(1H)-one]
27 | < 100 | < 100 | < 100 | 100 to 1000 | [2H]C([2H])([2H])Oc1ccc(-n2c(=O)c(-c3ccc4nn(C)cc4c3)cc3ccc(OC([2H])([2H])C([2H])([2H])[2H])nc32)cc1 [Example 301]
28 | < 100 | < 100 | < 100 | 100 to 1000 | [2H]C([2H])([2H])Oc1ccc(-n2c(=O)c(-c3ccc4nn(C([2H])([2H])[2H])cc4c3)cc3ccc(OC([2H])([2H])C([2H])([2H])[2H])nc32)cc1 [Example 303]
29 | < 100 | < 100 | < 100 | ≥ 1000 | [2H]C([2H])([2H])Oc1ccc(-n2c(=O)c(-c3ccc4nn(C)cc4c3)cc3ccc(O[C@@H](C)C(F)(F)F)nc32)cc1 [Example 305]
30 | < 100 | < 100 | < 100 | ≥ 1000 | CCNc1ccc2cc(-c3ccc4nn(C)cc4c3)c(=O)n(-c3ccc(C)nc3)c2n1 [Example 307]
31 | < 100 | < 100 | < 100 | < 100 | CCNc1ccc2cc(-c3ccc4nn(C)cc4c3)c(=O)n(-c3ccc(OC(F)F)cc3)c2n1 [Example 309]
32 | < 100 | < 100 | < 100 | ≥ 1000 | Cn1cc2cc(-c3cc4ccc(OCC(F)(F)F)nc4n(-c4ccc(C5CC5)cc4)c3=O)ccc2n1 [Example 314]
33 | < 100 | < 100 | < 100 | ≥ 1000 | [2H]C([2H])([2H])Oc1ccc(-n2c(=O)c(-c3ccc4nn(C)cc4c3)cc3ccc(OCC(F)(F)F)nc32)cc1 [Example 316]
34 | < 100 | < 100 | < 100 | ≥ 1000 | Cn1cc2cc(-c3cc4ccc(OCC(F)(F)F)nc4n(-c4ccc(Br)cc4)c3=O)ccc2n1 [Example 319]
35 | < 100 | < 100 | < 100 | 100 to 1000 | Cn1cc2cc(-c3cc4ccc(OCC(F)(F)F)nc4n(-c4ccc(N)nc4)c3=O)ccc2n1 [Example 320]
36 | < 100 | < 100 | < 100 | ≥ 1000 | [2H]C([2H])([2H])Oc1ccc(-n2c(=O)c(-c3ccc4nn(C)cc4c3)cc3ccc(OC(C)C)nc32)cc1 [Example 322]
